Each structure is given as a SMILES string. Bounds are passed on as bounds.

By Kd is commonly meant a measure of binding affinity in units of concentration. A higher Kd goes with weaker binding.

Holding throughout (details): FGFR binding data
One test addresses T1, FGFR3 (V555M) (Homo sapiens, UniProt P22607, V555M).
T1 construct: made in house; host or cells: E. coli derived from BL21, infected with T7 phage
Nature of the test: Kinase binding assay (kinase-tagged T7 phage, affinity beads, qPCR readout), FGFR3 (V555M). A digest of the protocol: (§1)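 First, streptavidin beads were loaded with biotinylated ligand and blocked. Kinase, beads and compound were then shaken together for 1 hour at room temperature in SeaBlock/PBS/Tween/DTT buffer. Finally, eluted kinase was measured by qPCR and Kd fitted with Hill slope −1.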
(In general: Quantitative PCR measures a nucleic acid by following its amplification.)

In the next test the target is T2, FGFR1 (Homo sapiens, UniProt P11362).
T2 construct: made in house; host or cells: E. coli derived from BL21, infected with T7 phage
T2 sequence (P11362 22-822): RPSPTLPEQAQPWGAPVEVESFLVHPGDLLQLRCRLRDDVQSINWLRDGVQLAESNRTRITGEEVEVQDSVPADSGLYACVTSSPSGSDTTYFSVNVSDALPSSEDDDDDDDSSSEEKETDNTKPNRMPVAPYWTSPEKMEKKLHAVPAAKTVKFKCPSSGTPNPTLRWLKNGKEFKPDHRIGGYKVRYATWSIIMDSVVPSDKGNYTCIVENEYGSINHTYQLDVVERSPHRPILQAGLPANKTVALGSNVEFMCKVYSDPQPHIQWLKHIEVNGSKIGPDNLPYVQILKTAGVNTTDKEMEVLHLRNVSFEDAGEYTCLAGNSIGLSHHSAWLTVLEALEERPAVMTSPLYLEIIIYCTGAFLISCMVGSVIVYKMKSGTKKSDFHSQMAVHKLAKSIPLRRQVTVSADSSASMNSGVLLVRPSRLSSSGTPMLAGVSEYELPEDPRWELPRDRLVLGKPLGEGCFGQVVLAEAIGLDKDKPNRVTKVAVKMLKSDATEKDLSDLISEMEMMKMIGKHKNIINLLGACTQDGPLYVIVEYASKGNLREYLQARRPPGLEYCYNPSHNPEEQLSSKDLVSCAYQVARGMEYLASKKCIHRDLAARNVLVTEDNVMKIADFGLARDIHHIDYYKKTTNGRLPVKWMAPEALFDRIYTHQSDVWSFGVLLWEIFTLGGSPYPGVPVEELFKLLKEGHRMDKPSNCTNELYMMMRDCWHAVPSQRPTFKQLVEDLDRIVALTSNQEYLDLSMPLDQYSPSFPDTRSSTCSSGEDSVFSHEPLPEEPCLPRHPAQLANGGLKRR
The test is described as follows: Kinase binding assay (kinase-tagged T7 phage, affinity beads, qPCR readout), FGFR1. The essentials: as §1

A further test addresses T3, FGFR2 (Homo sapiens, UniProt P21802).
T3 construct: made in house; host or cells: E. coli derived from BL21, infected with T7 phage
The test is described as follows: Kinase binding assay (kinase-tagged T7 phage, affinity beads, qPCR readout), FGFR2. A digest of the protocol:
as §1

The target of another test is T4, FGFR3 (Homo sapiens, UniProt P22607).
T4 construct: made in house; host or cells: E. coli derived from BL21, infected with T7 phage
T4 sequence (P22607 23-806): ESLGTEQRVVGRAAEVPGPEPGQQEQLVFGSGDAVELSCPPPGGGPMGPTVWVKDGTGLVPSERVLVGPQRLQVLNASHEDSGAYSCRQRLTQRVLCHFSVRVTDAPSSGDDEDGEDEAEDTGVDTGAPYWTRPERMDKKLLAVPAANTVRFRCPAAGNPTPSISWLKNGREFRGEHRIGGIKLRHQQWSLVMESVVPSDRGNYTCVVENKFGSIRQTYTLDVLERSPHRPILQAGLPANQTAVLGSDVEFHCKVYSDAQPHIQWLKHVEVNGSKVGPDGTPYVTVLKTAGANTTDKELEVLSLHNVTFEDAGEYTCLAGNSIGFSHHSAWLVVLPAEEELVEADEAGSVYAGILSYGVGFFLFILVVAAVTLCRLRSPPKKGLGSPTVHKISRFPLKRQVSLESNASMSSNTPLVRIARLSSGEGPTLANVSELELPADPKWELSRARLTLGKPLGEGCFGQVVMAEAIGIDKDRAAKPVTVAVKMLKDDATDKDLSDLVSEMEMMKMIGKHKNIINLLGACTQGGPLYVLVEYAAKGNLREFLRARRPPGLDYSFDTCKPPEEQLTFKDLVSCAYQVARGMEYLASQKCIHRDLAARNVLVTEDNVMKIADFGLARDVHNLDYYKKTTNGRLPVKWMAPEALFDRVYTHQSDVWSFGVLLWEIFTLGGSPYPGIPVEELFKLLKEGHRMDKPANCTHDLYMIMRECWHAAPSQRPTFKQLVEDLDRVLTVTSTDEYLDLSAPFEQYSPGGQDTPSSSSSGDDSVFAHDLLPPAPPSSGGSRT
Nature of the test: Kinase binding assay (kinase-tagged T7 phage, affinity beads, qPCR readout), FGFR3. The essentials:
as §1

T1 sequence (P22607 23-806 V555M): as the sequence (P22607 23-806) above, with V533M counted along it
T3 sequence (P21802 22-821): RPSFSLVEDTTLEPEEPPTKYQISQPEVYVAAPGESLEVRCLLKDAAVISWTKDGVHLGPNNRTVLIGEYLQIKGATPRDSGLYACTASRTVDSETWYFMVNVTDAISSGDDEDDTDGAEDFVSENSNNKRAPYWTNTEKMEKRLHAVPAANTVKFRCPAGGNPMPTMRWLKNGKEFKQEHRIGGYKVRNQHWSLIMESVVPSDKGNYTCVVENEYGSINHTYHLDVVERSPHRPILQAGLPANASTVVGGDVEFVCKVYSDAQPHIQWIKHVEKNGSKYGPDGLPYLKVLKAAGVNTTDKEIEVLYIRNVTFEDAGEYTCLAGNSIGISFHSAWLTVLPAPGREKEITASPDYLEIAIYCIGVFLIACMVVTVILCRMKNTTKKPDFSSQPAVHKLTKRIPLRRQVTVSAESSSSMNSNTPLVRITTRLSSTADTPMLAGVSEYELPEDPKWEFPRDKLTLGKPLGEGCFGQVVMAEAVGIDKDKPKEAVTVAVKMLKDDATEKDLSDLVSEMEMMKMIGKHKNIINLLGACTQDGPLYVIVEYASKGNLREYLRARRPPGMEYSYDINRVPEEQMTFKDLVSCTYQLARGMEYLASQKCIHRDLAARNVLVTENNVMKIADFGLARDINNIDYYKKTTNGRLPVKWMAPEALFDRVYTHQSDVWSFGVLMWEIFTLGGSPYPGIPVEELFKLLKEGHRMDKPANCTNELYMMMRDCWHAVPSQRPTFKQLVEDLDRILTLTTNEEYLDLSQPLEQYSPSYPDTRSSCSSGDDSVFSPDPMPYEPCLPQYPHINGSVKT

Regarding `Cc1cnc(Nc2cn(C)nc2C)nc1-n1cc(C)c2cc(NC(=O)/C=C/CN(C)C)cnc21` [Example 200, (E)-4-(dimethylamino)-N-[1-[2-[(1,3-dimethylpyrazol-4-yl)amino]-5-methyl-pyrimidin-4-yl]-3-methyl-pyrrolo[2,3-b]pyridin-5-yl]but-2-enamide], the Kd at FGFR3 (V555M), at FGFR1, at FGFR2 and on FGFR3 was 0.1 to 100 nM throughout.

With `C=CC(=O)Nc1ccc2c(c1)c(C)cn2-c1nc(Nc2cn(CCOC)nc2C)ncc1F` [Example 202, N-[1-[5-fluoro-2-[[1-(2-methoxyethyl)-3-methyl-pyrazol-4-yl]amino]pyrimidin-4-yl]-3-methyl-indol-5-yl]prop-2-enamide], the Kd on FGFR3 (V555M), at FGFR1, at FGFR2 and at FGFR3 was 0.1 to 100 nM in each case.

As for `C=CC(=O)Nc1ccc2c(c1)c(C)cn2-c1nc(Nc2cnn(CCOC(C)C)c2)ncc1F` [Example 203, N-[1-[5-fluoro-2-[[1-(2-isopropoxyethyl)pyrazol-4-yl]amino]pyrimidin-4-yl]-3-methyl-indol-5-yl]prop-2-enamide], the Kd on FGFR3 (V555M), at FGFR1, on FGFR2 and on FGFR3 was 0.1 to 100 nM throughout.

`C=CC(=O)Nc1ccc2c(c1)c(C)cn2-c1nc(Nc2cnn(CC(C)OC)c2)ncc1F` (stereo not shown) [Example 204, N-[1-[5-fluoro-2-[[1-(2-methoxypropyl)pyrazol-4-yl]amino]pyrimidin-4-yl]-3-methyl-indol-5-yl]prop-2-enamide]: the Kd on FGFR3 (V555M), on FGFR1, on FGFR2 and on FGFR3 was 0.1 to 100 nM throughout.

`C=CC(=O)Nc1ccc2c(c1)c(C)cn2-c1nc(Nc2cnn(C[C@H](C)OC)c2)ncc1F` [Example 205]: the Kd at FGFR3 (V555M), at FGFR1, at FGFR2 and on FGFR3 was 0.1 to 100 nM throughout.

Consider `C=CC(=O)Nc1ccc2c(c1)c(C)cn2-c1cc(Nc2cn(C)nc2C)nnc1C` [Example 209, N-[1-[6-[(1,3-dimethylpyrazol-4-yl)amino]-3-methyl-pyridazin-4-yl]-3-methyl-indol-5-yl]prop-2-enamide], for which the Kd at FGFR3 (V555M), at FGFR1, at FGFR2 and on FGFR3 was above 1000 nM throughout.

With `C=CC(=O)Nc1ccc2c(c1)c(C)cn2-c1nc(Nc2cnn(C[C@@H](C)OC)c2)ncc1F` [Example 210, N-[1-[5-fluoro-2-[[1-[(2R)-2-methoxypropyl]pyrazol-4-yl]amino]pyrimidin-4-yl]-3-methyl-indol-5-yl]prop-2-enamide], the Kd on FGFR3 (V555M), at FGFR1, at FGFR2 and at FGFR3 was 0.1 to 100 nM in each case.

For the compound `Cc1nn(C)cc1Nc1ncc(F)c(-n2cc(C)c3cc(NC(=O)/C=C/CN4CCOCC4)cnc32)n1` [Example 213, (E)-N-[1-[2-[(1,3-dimethylpyrazol-4-yl)amino]-5-fluoro-pyrimidin-4-yl]-3-methyl-pyrrolo[2,3-b]pyridin-5-yl]-4-morpholino-but-2-enamide], the Kd at FGFR3 (V555M), on FGFR1, at FGFR2 and at FGFR3 was above 1000 nM throughout.

For the compound `C=CC(=O)Nc1ccc2c(c1)c(C)cn2-c1nc(Nc2cnn(C[C@@H](C)O)c2C)ncc1F` [Example 216, N-[1-[5-fluoro-2-[[1-[(2R)-2-hydroxypropyl]-5-methyl-pyrazol-4-yl]amino]pyrimidin-4-yl]-3-methyl-indol-5-yl]prop-2-enamide], the Kd on FGFR3 (V555M), on FGFR1, at FGFR2 and at FGFR3 was 0.1 to 100 nM each time.

Regarding `C=CC(=O)Nc1ccc2c(c1)c(C)cn2-c1ncnc(Nc2cnn(C)c2)n1` [Example 218, N-[3-methyl-1-[4-[(1-methylpyrazol-4-yl)amino]-1,3,5-triazin-2-yl]indol-5-yl]prop-2-enamide], the Kd at FGFR3 (V555M), at FGFR1, at FGFR2 and at FGFR3 was 0.1 to 100 nM each time.

The values are drawn from patent US20240190849A1, “AMINOPYRIMIDINE COMPOUNDS AND METHODS OF THEIR USE” (TYRA BIOSCIENCES, INC., priority 2021, published 2024).
